tested on: Radical scavenging activity; assay: Antioxidant activity assessed as DPPH radical scavenging activity; assay type: functional; settings: not given; call rule not given here

Row | Compound | IC50
1 | O=C1OC(=O)c2ccc(Br)c3cccc1c23 | Not Active

same assay, conditions: read-out: IC50

Row | Compound | IC50
2 | O=C1c2cccc3c(NCc4ccccc4)c([N+](=O)[O-])cc(c23)C(=O)N1Cc1ccccc1 | 43.1 µM
3 | O=C1OC(=O)c2cccc3cccc1c23 [1,8-NAPHTHALIC ANHYDRIDE] | 1770 µM
4 | CC(C)c1ccc2c(c1)CCC1[C@@](C)(CN3C(=O)c4cccc5c(NCCO)ccc(c45)C3=O)CCC[C@]21C (some centres not stated) | 221 µM
5 | CC(C)c1ccc2c(c1)CCC1[C@@](C)(CN3C(=O)c4cccc5c(NCc6ccccc6)ccc(c45)C3=O)CCC[C@]21C (some centres not stated) | 61.9 µM
6 | O=C1NC(=O)c2cccc3cccc1c23 | 149 µM
7 | CCCCNc1ccc2c3c(cccc13)C(=O)N(CCCC)C2=O | 320 µM
8 | NN1C(=O)c2cccc3cccc(c23)C1=O | 187 µM
9 | O=C1c2cccc3c(NCc4ccccc4)ccc(c23)C(=O)N1Cc1ccccc1 | 84.6 µM
10 | O=C1c2cccc3c(NCCO)c([N+](=O)[O-])cc(c23)C(=O)N1CCO | 231 µM
11 | Cc1ccc(Nc2c([N+](=O)[O-])cc3c4c(cccc24)C(=O)N(c2ccc(C)cc2)C3=O)cc1 | 42.2 µM
12 | O=C1c2cccc3cccc(c23)C(=O)N1Cc1ccccc1 | 143 µM
13 | Cc1cc(C(C)(C)C)c(O)c(C(C)(C)C)c1 [BUTYLATED HYDROXYTOLUENE] | 65.8 µM
14 | CC(C)c1ccc2c(c1)CCC1[C@@](C)(CN3C(=O)c4cccc5c(Br)ccc(c45)C3=O)CCC[C@]21C (some centres not stated) | 208 µM
15 | CCCCN1C(=O)c2cccc3cccc(c23)C1=O | 183 µM
16 | CCCNc1ccc2c3c(cccc13)C(=O)N(C[C@@]1(C)CCC[C@]3(C)c4ccc(C(C)C)cc4CCC13)C2=O (some centres not stated) | 210 µM
17 | O=C1c2cccc3c(Br)ccc(c23)C(=O)N1Cc1ccccc1 | 238 µM
18 | CCCCNc1c([N+](=O)[O-])cc2c3c(cccc13)C(=O)N(CCCC)C2=O | 215 µM
19 | CCCNc1ccc2c3c(cccc13)C(=O)N(CCC)C2=O | 351 µM
20 | CCCCNc1ccc2c3c(cccc13)C(=O)N(C[C@@]1(C)CCC[C@]3(C)c4ccc(C(C)C)cc4CCC13)C2=O (some centres not stated) | 206 µM
21 | CC(C)c1ccc2c(c1)CCC1[C@@](C)(CN3C(=O)c4cccc5cccc(c45)C3=O)CCC[C@]21C (some centres not stated) | 166 µM
22 | CCCN1C(=O)c2cccc3cccc(c23)C1=O | 179 µM
23 | O=C1c2cccc3cccc(c23)C(=O)N1Nc1ccccc1 | 147 µM
24 | O=C1c2cccc3cccc(c23)C(=O)N1c1ccccc1 | 130 µM
25 | CCCNc1c([N+](=O)[O-])cc2c3c(cccc13)C(=O)N(CCC)C2=O | 231 µM
26 | O=C1OC(=O)c2cc([N+](=O)[O-])c(Br)c3cccc1c23 | 54 µM
27 | O=C1c2cccc3cccc(c23)C(=O)N1CCO | 155 µM
